# From US6534056B1, “Therapeutic and diagnostic uses of protein tyrosine phosphatase TC-PTP” (McGill University, priority 1998, dated 2003)
# What was measured:
# EFM4−/− cells = assay: Survival (MTT conversion) 24 h after methyl methane-sulfonate treatment, TC-PTP knock-out cell line; type: cell-based, murine; conditions: 5 μM MMS, 24 h after treatment, FIG. 5D
# Method: (§1) Cell proliferation and survival. Primary MEF+/+ and −/−, and TC-PTP+/+ and TC-PTP−/− cell, lines were seeded in 24-well cell culture plates at a density of […] in DMEM with 10% FBS. Cell number was determined after trypsinization by trypan blue exclusion or by MTT assay (Mosmann (1983) J. Immunol. Methods. 62:55-63) at day 1, 3, 5 and 7 after plating. Cells were treated with gamma- or UV-irradiation at doses indicated using a Gammacell 1000 (Atomic Energy of Canada) with a 137Cs source and Stratalinker (Stratagene) respectively. After irradiation, the cells were plated in triplicate on 24-well plates. Survival was evaluated by MTT viability assays 48 hr post-radiation.
# (§2) The function of cell cycle checkpoints is to verify the physical status of the genomic DNA. […] To assess the effects of DNA-damaging agents such as γ-radiation, UV-C radiation and methyl methane-sulfonate (MMS) treatment on TC-PTP−/− cells, we first evaluated at different times after treatment, the effect of 1000 rads of γ-radiation on the survival of the EFM7+/+, EFM3+/− and EFM4−/− cells. […] Conversion of MTT was evaluated as a measure of survival at 8, 24 and 48 h after the treatment and it is expressed as the percentage of OD570 measurements of treated to untreated wells. […]
# (§3) Another DNA-damaging agent used was MMS, which is a DNA alkylating agent that results in single-strand breaks. […] Results are expressed as in A.
# EFM7+/+ cells = assay: Survival (MTT conversion) 24 h after methyl methane-sulfonate treatment, wild-type cell line; type: cell-based, murine; conditions: 5 μM MMS, 24 h after treatment, FIG. 5D
# Method: as §1, §2, §3
smiles,measurement,setting,value
"COS(C)(=O)=O [MMS, methyl methane-sulfonate]",viability after MMS treatment,EFM4−/− cells,strong decrease in the viability
same,viability after MMS treatment,EFM7+/+ cells,slight decrease
